{"source": "paper PMC5218480", "about": "(PLoS ONE, 2017)", "system": "MV-4-11 cells", "experiment": "Gene expression microarray analysis (Affymetrix PrimeView) and GSEA", "assay_type": "cell-based, human", "parameters": "RFU PODN (11730768_x_at) / Fold change /veh PODN (11730768_x_at) / RFU LINC00158 (11744669_a_at) / Fold change /veh LINC00158 (11744669_a_at) / RFU DUSP10 (11751237_a_at) / Fold change /veh DUSP10 (11751237_a_at) / RFU ID3 (11757404_x_at) / Fold change /veh ID3 (11757404_x_at) / RFU PLEKHG5 (11737974_s_at) / Fold change /veh PLEKHG5 (11737974_s_at) / RFU LRRC4B (11730491_at) / Fold change /veh LRRC4B (11730491_at) / RFU GIMAP4 (11747438_a_at) / Fold change /veh GIMAP4 (11747438_a_at) / RFU KRT8 (11758183_x_at) / Fold change /veh KRT8 (11758183_x_at) / RFU CNN1 (11734310_a_at) / Fold change /veh CNN1 (11734310_a_at) / RFU VPS37D (11726825_at) / Fold change /veh VPS37D (11726825_at) / RFU C10orf10 (11716522_x_at) / Fold change /veh C10orf10 (11716522_x_at) / RFU KIR2DL2 /// KIR2DL4 /// KIR2DL5A /// KIR2DL5B /// KIR2DS1 /// KIR2DS2 /// KIR2DS3 /// KIR2DS4 /// KIR3DL3 /// KIR3DL3 /// KIR3DS1 (11738374_at) / Fold change /veh KIR2DL2 /// KIR2DL4 /// KIR2DL5A /// KIR2DL5B /// KIR2DS1 /// KIR2DS2 /// KIR2DS3 /// KIR2DS4 /// KIR3DL3 /// KIR3DL3 /// KIR3DS1 (11738374_at) / RFU C1QL1 (11718748_at) / Fold change /veh C1QL1 (11718748_at) / RFU TMPRSS4 (11747572_a_at) / Fold change /veh TMPRSS4 (11747572_a_at) / RFU HAMP (11756126_x_at) / Fold change /veh HAMP (11756126_x_at) / RFU RNFT2 (11725882_a_at) / Fold change /veh RNFT2 (11725882_a_at) / RFU NR4A2 (11747474_a_at) / Fold change /veh NR4A2 (11747474_a_at) / RFU ABCC12 (11746883_a_at) / Fold change /veh ABCC12 (11746883_a_at) / RFU TMEM136 (11760407_x_at) / Fold change /veh TMEM136 (11760407_x_at) / RFU CLDN22 /// WWC2 (11732394_at) / Fold change /veh CLDN22 /// WWC2 (11732394_at) / RFU HLA-DPB1 (11760878_x_at) / Fold change /veh HLA-DPB1 (11760878_x_at) / RFU SPINT1 (11716480_a_at) / Fold change /veh SPINT1 (11716480_a_at) / RFU GAP43 (11754022_s_at) / Fold change /veh GAP43 (11754022_s_at) / RFU A4GNT (11735810_at) / Fold change /veh A4GNT (11735810_at) / RFU PRB3 (11715151_x_at) / Fold change /veh PRB3 (11715151_x_at) / RFU TUBB4B (11761932_at) / Fold change /veh TUBB4B (11761932_at) / RFU CAPN14 (11732068_a_at) / Fold change /veh CAPN14 (11732068_a_at) / RFU TMCC2 (11721928_a_at) / Fold change /veh TMCC2 (11721928_a_at) / RFU IRGQ (11745062_a_at) / Fold change /veh IRGQ (11745062_a_at) / RFU FAM174B (11720279_a_at) / Fold change /veh FAM174B (11720279_a_at) / RFU TMPRSS4 (11748680_a_at) / Fold change /veh TMPRSS4 (11748680_a_at) / RFU FAM212B (11763350_a_at) / Fold change /veh FAM212B (11763350_a_at) / RFU PLEKHG5 (11743358_a_at) / Fold change /veh PLEKHG5 (11743358_a_at) / RFU ZSCAN30 (11745921_a_at) / Fold change /veh ZSCAN30 (11745921_a_at) / RFU CMKLR1 (11741424_a_at) / Fold change /veh CMKLR1 (11741424_a_at) / RFU LOC101060620 /// MAPK8IP1 (11723275_at) / Fold change /veh LOC101060620 /// MAPK8IP1 (11723275_at) / RFU SPTSSB (11747773_x_at) / Fold change /veh SPTSSB (11747773_x_at) / RFU PRSS12 (11739890_at) / Fold change /veh PRSS12 (11739890_at) / RFU BIN1 (11741810_x_at) / Fold change /veh BIN1 (11741810_x_at) / RFU WNT11 (11732464_a_at) / Fold change /veh WNT11 (11732464_a_at) / RFU C10orf10 (11716521_a_at) / Fold change /veh C10orf10 (11716521_a_at) / RFU C5orf56 (11738089_at) / Fold change /veh C5orf56 (11738089_at) / RFU CYB561 (11721691_x_at) / Fold change /veh CYB561 (11721691_x_at) / RFU ANKRD19P (11752326_a_at) / Fold change /veh ANKRD19P (11752326_a_at) / RFU OR2T12 /// OR2T33 /// OR2T8 (11738714_s_at) / Fold change /veh OR2T12 /// OR2T33 /// OR2T8 (11738714_s_at) / RFU VCAN (11748164_a_at) / Fold change /veh VCAN (11748164_a_at) / RFU JSRP1 (11732532_at) / Fold change /veh JSRP1 (11732532_at) / RFU KRTAP10-11 (11738290_x_at) / Fold change /veh KRTAP10-11 (11738290_x_at) / RFU MYO3A (11730013_a_at) / Fold change /veh MYO3A (11730013_a_at) / RFU EBF3 (11725865_a_at) / Fold change /veh EBF3 (11725865_a_at) / RFU CAMK2N1 (11719241_x_at) / Fold change /veh CAMK2N1 (11719241_x_at) / RFU C5orf56 (11738088_a_at) / Fold change /veh C5orf56 (11738088_a_at) / RFU OLFML3 (11715873_a_at) / Fold change /veh OLFML3 (11715873_a_at) / RFU LOC100653217 /// NTM (11731650_a_at) / Fold change /veh LOC100653217 /// NTM (11731650_a_at) / RFU MAPK11 (11762145_a_at) / Fold change /veh MAPK11 (11762145_a_at) / RFU FIZ1 (11724087_x_at) / Fold change /veh FIZ1 (11724087_x_at) / RFU OASL (11726364_x_at) / Fold change /veh OASL (11726364_x_at) / RFU SOX15 (11748057_x_at) / Fold change /veh SOX15 (11748057_x_at) / RFU CD79A (11719716_a_at) / Fold change /veh CD79A (11719716_a_at) / RFU HIST1H1D (11736915_at) / Fold change /veh HIST1H1D (11736915_at) / RFU CASKIN2 (11723855_a_at) / Fold change /veh CASKIN2 (11723855_a_at) / RFU LOC730098 (11760151_x_at) / Fold change /veh LOC730098 (11760151_x_at) / RFU OR4N2 (11742367_at) / Fold change /veh OR4N2 (11742367_at) / RFU PRRT2 (11749266_a_at) / Fold change /veh PRRT2 (11749266_a_at) / RFU SNX32 (11753110_a_at) / Fold change /veh SNX32 (11753110_a_at) / RFU CDHR5 (11726645_a_at) / Fold change /veh CDHR5 (11726645_a_at) / RFU RCAN1 (11760418_a_at) / Fold change /veh RCAN1 (11760418_a_at) / RFU FAM167A (11723789_a_at) / Fold change /veh FAM167A (11723789_a_at) / RFU FAM26E (11764081_at) / Fold change /veh FAM26E (11764081_at) / RFU ISYNA1 (11749810_s_at) / Fold change /veh ISYNA1 (11749810_s_at) / RFU ACY1 (11761880_at) / Fold change /veh ACY1 (11761880_at) / RFU 11764098_at / Fold change /veh 11764098_at / RFU SAMD14 (11745864_x_at) / Fold change /veh SAMD14 (11745864_x_at) / RFU NPB (11741838_a_at) / Fold change /veh NPB (11741838_a_at) / RFU TMPRSS6 (11731388_a_at) / Fold change /veh TMPRSS6 (11731388_a_at) / RFU KRTAP10-2 (11738614_at) / Fold change /veh KRTAP10-2 (11738614_at) / RFU ARHGAP8 /// PRR5-ARHGAP8 (11727945_x_at) / Fold change /veh ARHGAP8 /// PRR5-ARHGAP8 (11727945_x_at) / RFU KRTAP5-7 /// NADSYN1 (11734609_at) / Fold change /veh KRTAP5-7 /// NADSYN1 (11734609_at) / RFU RASL12 (11751679_a_at) / Fold change /veh RASL12 (11751679_a_at) / RFU CDKN2B (11736163_a_at) / Fold change /veh CDKN2B (11736163_a_at) / RFU PRF1 (11729649_at) / Fold change /veh PRF1 (11729649_at) / RFU, ZNF638 /// ZNF638-IT1 / Fold change vs veh, ZNF638 /// ZNF638-IT1 / RFU, PANK3 / Fold change vs veh, PANK3 / RFU, SH3YL1 / Fold change vs veh, SH3YL1 / RFU, ZEB2 / Fold change vs veh, ZEB2 / RFU, NRIP1 / Fold change vs veh, NRIP1 / RFU, PTTG1IP / Fold change vs veh, PTTG1IP / RFU, CAPN2 / Fold change vs veh, CAPN2 / RFU, MED14 / Fold change vs veh, MED14 / RFU, SNORA58 / Fold change vs veh, SNORA58 / RFU, C1orf63 / Fold change vs veh, C1orf63 / RFU, LRRFIP1 / Fold change vs veh, LRRFIP1 / RFU, NDUFAF7 / Fold change vs veh, NDUFAF7 / RFU, SLC12A2 / Fold change vs veh, SLC12A2 / RFU, IBTK / Fold change vs veh, IBTK / RFU, ESF1 / Fold change vs veh, ESF1 / Fold change vs veh, TMEM50B / RFU, TAOK1 / Fold change vs veh, TAOK1 / RFU, ACBD3 / Fold change vs veh, ACBD3 / RFU, TMA16 / Fold change vs veh, TMA16 / RFU, RWDD3 / Fold change vs veh, RWDD3 / RFU, BCAT1 / Fold change vs veh, BCAT1 / RFU, EDEM3 / Fold change vs veh, EDEM3 / RFU, TMEM33 / Fold change vs veh, TMEM33 / RFU, WDR75 / Fold change vs veh, WDR75 / RFU, AHCTF1 / Fold change vs veh, AHCTF1 / RFU, TFRC / Fold change vs veh, TFRC / RFU, ZDHHC17 / Fold change vs veh, ZDHHC17 / RFU, NOM1 / Fold change vs veh, NOM1 / RFU, ARL8B / Fold change vs veh, ARL8B / RFU, ZBTB11 / Fold change vs veh, ZBTB11 / RFU, TAMM41 / Fold change vs veh, TAMM41 / RFU, KIAA1704 /// LOC100996395 / Fold change vs veh, KIAA1704 /// LOC100996395 / RFU, ING1 / Fold change vs veh, ING1 / RFU, TRMT61B / Fold change vs veh, TRMT61B / RFU, FUBP3 / Fold change vs veh, FUBP3 / RFU, TP53 / Fold change vs veh, TP53 / RFU, TNKS2 / Fold change vs veh, TNKS2 / RFU, ZFP14 / Fold change vs veh, ZFP14 / RFU, ACTR2 / Fold change vs veh, ACTR2 / RFU, PPP3R1 / Fold change vs veh, PPP3R1 / RFU, PIK3R1 / Fold change vs veh, PIK3R1 / RFU, HNRNPA1 / Fold change vs veh, HNRNPA1 / RFU, RNF170 / Fold change vs veh, RNF170 / RFU, ZNF28 / Fold change vs veh, ZNF28 / RFU, RNGTT / Fold change vs veh, RNGTT / RFU, OGT / Fold change vs veh, OGT / RFU, BRD1 / Fold change vs veh, BRD1 / RFU, MARS / Fold change vs veh, MARS / RFU, ZNF655 / Fold change vs veh, ZNF655 / RFU, FAHD1 / Fold change vs veh, FAHD1 / RFU, BDP1 / Fold change vs veh, BDP1 / RFU, LRRCC1 / Fold change vs veh, LRRCC1 / RFU, ARID1A / Fold change vs veh, ARID1A / RFU, ZNF146 / Fold change vs veh, ZNF146 / RFU, ZNF330 / Fold change vs veh, ZNF330 / RFU, GPN3 / Fold change vs veh, GPN3 / RFU, C9orf123 / Fold change vs veh, C9orf123 / RFU, N4BP2L2 / Fold change vs veh, N4BP2L2 / RFU, ARFIP1 / Fold change vs veh, ARFIP1 / RFU, FAM179B / Fold change vs veh, FAM179B / RFU, BCL10 / Fold change vs veh, BCL10 / RFU, UHRF1BP1L / Fold change vs veh, UHRF1BP1L / RFU, BET1 / Fold change vs veh, BET1 / RFU, CNOT2 / Fold change vs veh, CNOT2 / RFU, ZNF268 / Fold change vs veh, ZNF268 / Fold change vs veh, ZNF507 / RFU, DGCR2 / Fold change vs veh, DGCR2 / RFU, WDSUB1 / Fold change vs veh, WDSUB1 / Fold change vs veh, HSP90B1 /// MIR3652 / RFU, ADSS / Fold change vs veh, ADSS / RFU, GK / Fold change vs veh, GK / RFU, ZNF148 / Fold change vs veh, ZNF148 / RFU, TAF9 / Fold change vs veh, TAF9 / RFU, SLC1A5 / Fold change vs veh, SLC1A5 / RFU, SLMO2 / Fold change vs veh, SLMO2 / RFU, ABCC4 / Fold change vs veh, ABCC4 / RFU, LOC101060439 /// RAP1B / Fold change vs veh, LOC101060439 /// RAP1B / RFU, RFX7 / Fold change vs veh, RFX7 / RFU, GTPBP10 / Fold change vs veh, GTPBP10 / RFU, CNEP1R1 / Fold change vs veh, CNEP1R1 / RFU, BIVM-ERCC5 /// ERCC5 / Fold change vs veh, BIVM-ERCC5 /// ERCC5 / RFU, ILF3 / Fold change vs veh, ILF3 / RFU 11762660_at / Fold change /veh 11762660_at / RFU VCAN (11757783_s_at) / Fold change /veh VCAN (11757783_s_at) / RFU DDX43 (11728927_at) / Fold change /veh DDX43 (11728927_at) / RFU KRT8 (11758188_x_at) / Fold change /veh KRT8 (11758188_x_at) / RFU NKD1 (11759106_at) / Fold change /veh NKD1 (11759106_at) / RFU SRD5A1 (11742802_a_at) / Fold change /veh SRD5A1 (11742802_a_at) / RFU TPSAB1 /// TPSB2 (11721975_s_at) / Fold change /veh TPSAB1 /// TPSB2 (11721975_s_at) / RFU GSTM3 (11746129_a_at) / Fold change /veh GSTM3 (11746129_a_at) / RFU IL23R (11737362_x_at) / Fold change /veh IL23R (11737362_x_at) / RFU TMEM51 (11727254_a_at) / Fold change /veh TMEM51 (11727254_a_at) / RFU PIWIL2 (11732686_x_at) / Fold change /veh PIWIL2 (11732686_x_at) / RFU ORM1 (11744905_x_at) / Fold change /veh ORM1 (11744905_x_at) / RFU CCDC152 (11743942_at) / Fold change /veh CCDC152 (11743942_at) / RFU ECM1 (11717891_a_at) / Fold change /veh ECM1 (11717891_a_at) / RFU IL23R (11748794_a_at) / Fold change /veh IL23R (11748794_a_at) / RFU TNFAIP8L3 (11732012_x_at) / Fold change /veh TNFAIP8L3 (11732012_x_at) / RFU MBOAT4 (11741988_at) / Fold change /veh MBOAT4 (11741988_at) / RFU 11764193_at / Fold change /veh 11764193_at / RFU TMEM53 (11763286_at) / Fold change /veh TMEM53 (11763286_at) / RFU MAGEB2 (11727129_at) / Fold change /veh MAGEB2 (11727129_at) / RFU TMEM200A (11744735_a_at) / Fold change /veh TMEM200A (11744735_a_at) / RFU CCDC152 (11751479_a_at) / Fold change /veh CCDC152 (11751479_a_at) / RFU FAM211A (11726209_a_at) / Fold change /veh FAM211A (11726209_a_at) / RFU RGS16 (11746705_a_at) / Fold change /veh RGS16 (11746705_a_at) / RFU VCAN (11755009_s_at) / Fold change /veh VCAN (11755009_s_at) / RFU RHOB (11743442_s_at) / Fold change /veh RHOB (11743442_s_at) / RFU RGS16 (11720943_a_at) / Fold change /veh RGS16 (11720943_a_at) / RFU RGS16 (11720944_at) / Fold change /veh RGS16 (11720944_at) / RFU, VPS4B / Fold change vs veh, VPS4B / RFU, CREB1 / Fold change vs veh, CREB1 / RFU, DNAJC13 / Fold change vs veh, DNAJC13 / RFU, GNAQ / Fold change vs veh, GNAQ / RFU, CDK5R1 / Fold change vs veh, CDK5R1 / RFU, ZRANB3 / Fold change vs veh, ZRANB3 / RFU, CUL4A / Fold change vs veh, CUL4A / RFU, CCNY / Fold change vs veh, CCNY / RFU, UFL1 / Fold change vs veh, UFL1 / RFU, COG3 / Fold change vs veh, COG3 / RFU, DIAPH2 / Fold change vs veh, DIAPH2 / RFU, SKA2 / Fold change vs veh, SKA2 / RFU, AFF3 / Fold change vs veh, AFF3 / RFU, LMF1 / Fold change vs veh, LMF1 / RFU, IPO11 / Fold change vs veh, IPO11 / RFU, DFFB / Fold change vs veh, DFFB / RFU, FOXP1 / Fold change vs veh, FOXP1 / RFU, CARD8 / Fold change vs veh, CARD8 / RFU, STRN3 / Fold change vs veh, STRN3 / RFU, ADK / Fold change vs veh, ADK / RFU, RASSF2 / Fold change vs veh, RASSF2 / RFU, WIPF1 / Fold change vs veh, WIPF1 / RFU, LARP1B / Fold change vs veh, LARP1B / RFU, RASA1 / Fold change vs veh, RASA1 / RFU, RB1 / Fold change vs veh, RB1 / RFU, PPFIA1 / Fold change vs veh, PPFIA1 / RFU, MAT2A / Fold change vs veh, MAT2A / RFU, CCT5 / Fold change vs veh, CCT5 / RFU, WDR92 / Fold change vs veh, WDR92 / RFU, CUX1 / Fold change vs veh, CUX1 / RFU, TTC7A / Fold change vs veh, TTC7A / RFU, TMEM135 / Fold change vs veh, TMEM135 / RFU, DEPTOR / Fold change vs veh, DEPTOR / RFU, CPM / Fold change vs veh, CPM / RFU, DNAJB6 / Fold change vs veh, DNAJB6 / RFU, CACNA2D3 / Fold change vs veh, CACNA2D3 / RFU, DTX4 / Fold change vs veh, DTX4 / RFU, TFCP2 / Fold change vs veh, TFCP2 / RFU, GMCL1 /// GMCL1P1 / Fold change vs veh, GMCL1 /// GMCL1P1 / RFU, AEBP2 / Fold change vs veh, AEBP2 / RFU, SNHG1 /// SNORD22 /// SNORD25 /// SNORD26 /// SNORD27 /// SNORD28 /// SNORD29 /// SNORD31 / Fold change vs veh, SNHG1 /// SNORD22 /// SNORD25 /// SNORD26 /// SNORD27 /// SNORD28 /// SNORD29 /// SNORD31 / Fold change (Aza/veh), C12orf56 (ProbeSet 11735607_a_at) / Fold change (ACY-1035/veh), C12orf56 (ProbeSet 11735607_a_at) / Fold change (Aza/veh), FGFR1OP (ProbeSet 11751329_s_at) / Fold change (ACY-1035/veh), FGFR1OP (ProbeSet 11751329_s_at) / Fold change (Aza/veh), VPS36 (ProbeSet 11739960_a_at) / Fold change (ACY-1035/veh), VPS36 (ProbeSet 11739960_a_at) / RFU SYPL1 (11715823_x_at) / Fold change /veh SYPL1 (11715823_x_at) / RFU IGFBP7 (11715501_s_at) / Fold change /veh IGFBP7 (11715501_s_at) / RFU REEP3 (11722064_at) / Fold change /veh REEP3 (11722064_at) / RFU IGLL1 (11728026_x_at) / Fold change /veh IGLL1 (11728026_x_at): dose or concentration left out as unconfirmed", "conditions": "ProbeSet 11749551_a_at; LIST B", "data": [{"smiles": "Nc1ncn([C@@H]2O[C@H](CO)[C@@H](O)[C@H]2O)c(=O)n1", "note": "[azacitidine]", "values": [{"measurement": "Fold change vs veh, RNGTT", "result": 1.02}]}]}
